Reference: patent publication US5844000A, “Propenone oxime ethers and pharmaceutical compositions containing them” (Sanofi, priority 1997, dated 1998)
Entries after “also recorded” stand apart in the source; their conditions may differ. One block for each compound: values may come before it.

How the values were obtained:
[1] = Urinary excretion and urinary metabolite profiling in humans; format: in vivo, human; conditions: up to 336 hr post-dose, % of administered dose
Procedure: (§1) The objective of this study was to quantitate the biotransformation of ^14 C-SR 46349B in humans. Six healthy male volunteers were treated orally with a single 30 mg dose of ^14 C-SR 46349B (corresponding to 35.4 mg of the salified compound), labeled on the C-1 position of the propenyl chain with ^14 C (1.375 MBq). Excretion-balance, plasma and blood pharmacokinetics of radioactivity, and clinical safety/tolerance were reported. Plasma, urine and fecal homogenates were analyzed for quantitation and identification of SR 46349B and metabolites.
(§2) Subjects were fasted overnight prior to the morning of ^14 C-SR 46349B administration. All subjects received a single oral 30 mg dose of ^14 C-SR 46349B (corresponding to 35.4 mg of the unsalified compound) in a single gelatin capsule. […]
(§3) Aliquots of plasma and urine samples were added directly to Ready-Safe scintillant (9 mL), hand shaken for a few seconds and left for at least 2 hours prior to counting. […] Radioactivity assays were performed with a Packard Instruments Tri-Carb, Model 1600TR Liquid Scintillation System. […]
A representative pool of urine was prepared for each subject by mixing aliquots from each collection interval in proportion to the percent of radioactivity present in each collection interval. Pools were prepared to represent approximately 95% of total collected urinary radioactivity. […]

[2] = Human pharmacokinetics: plasma radioactivity after single oral dose of 14C-SR 46349B; format: in vivo
Procedure: as §1
(§4) Subjects were fasted overnight prior to the morning of ^14 C-SR 46349B administration. All subjects received a single oral 30 mg dose of ^14 C-SR 46349B (corresponding to 35.4 mg of the […] compound) in a single gelatin capsule. The capsule was dropped directly in the mouth and swallowed with 150 mL of tap water at about 8:00 AM. Ingestion of the capsule was verified by inspection of the oral cavity of each subject.
(§5) Blood samples were obtained at 0, 0.5, 1, 1.5, 2, 2.5, 3, 4, 6, 8, 10, 12, 16, 24, 36, 48, 72, 96, 120, 144, 168, 192, 216, 240, 264, 288 and 312 hr after dosing. For each sample, approximately 7 mL of blood (22 mL at 2, 3, 4, 8, 12, 24 and 48 hrs after dosing) was drawn into polypropylene collection tubes containing lithium heparin (as an anticoagulant). Following the removal of 1 mL of blood for radiocarbon analysis, samples were centrifuged (within 30 min) at 2000-3000×g for 10 min and the plasma transferred into polypropylene transport tubes. All samples were stored frozen (≤-18° C.) until analysis.
Aliquots of plasma and urine samples were added directly to Ready-Safe scintillant (9 mL), hand shaken for a few seconds and left for at least 2 hours prior to counting. Aliquots of fecal homogenates were weighed in a Combusto-Cone fitted with a CombustoPad. The samples were allowed to dry overnight before combustion in a Packard Sample Oxidizer, Model 307 (Meriden, Conn.). Carbo-Sorb and Permafluor E^+ were used as scintillants (10 mL). Samples mixed with scintillant were left for at least 4 hours prior to counting. Radioactivity assays were performed with a Packard Instruments Tri-Carb, Model 1600TR Liquid Scintillation System. The LOQ was set at 12 cpm above background.

[3] = Fecal excretion and fecal metabolite profiling in humans; format: in vivo, human; conditions: up to 276 hr post-dose, % of administered dose
Procedure: as §1, §2, §3
A representative pool of fecal homogenate was prepared for each subject by mixing aliquots from each collection interval in proportion to the percent of radioactivity present in each collection interval. Pools were prepared to represent approximately 95% of total collected fecal radioactivity. […]

[4] = Biotransformation: excreted radioactivity (urine and feces) as SR 46349 and metabolites in humans; format: in vivo, human; conditions: for percentage of excreted radioactivity: urine and feces, excreted (recovered) radioactivity
Procedure: Excretion-balance, plasma and blood pharmacokinetics of radioactivity, and clinical safety/tolerance were reported.
The capsule was dropped directly in the mouth and swallowed with 150 mL of tap water at about 8:00 AM. Ingestion of the capsule was verified by inspection of the oral cavity of each subject.
A representative pool of urine was prepared for each subject by mixing aliquots from each collection interval in proportion to the percent of radioactivity present in each collection interval.
A representative pool of fecal homogenate was prepared for each subject by mixing aliquots from each collection interval in proportion to the percent of radioactivity present in each collection interval.
(§6) Metabolite quantitation was conducted with an HP1090 HPLC system (Hewlett Packard, Wilmington, Del. HPLC eluant was fraction collected (0.33 mL/fraction using a FOXY™ Model 200 fraction collector; Isco, Lincoln, Nebr.). Fractions were mixed with 5 mL of Biofluor cocktail and then counted using a Tri-Carb 2700TR liquid scintillation counter (Packard, Meriden, Conn.).
Sample extraction and HPLC column recoveries were calculated using measured radioactivity in samples, sample extracts and HPLC eluants. Recoveries of 100% were based on the expected amount of radioactivity in a sample prior to extraction or HPLC analysis.
Urinary and fecal metabolites are expressed as a percentage of the radioactivity in each matrix and as a percentage of excreted (recovered) radioactivity. Values were corrected for total experimental recoveries.

[5] = Plasma metabolite profiling in humans; format: in vivo, human; conditions: result in words; time points up to 48 hr
Procedure: as §1
Subjects were fasted overnight prior to the morning of ^14 C-SR 46349B administration. […]
Pools of plasma for each collection time were prepared by mixing equal amounts of plasma from all subjects. This made available enough plasma at each time point to quantitate metabolites. […] Due to low amounts of radioactivity in plasma, five concentrated extracts from the same time point were combined. […] Pools for each collection time were analyzed in triplicate.
as §6, with “Conn.). […]” for “Conn.).”

[6] = Human pharmacokinetics: plasma concentration of SR 46349 (HPLC-UV) after single oral dose of 14C-SR 46349B; format: in vivo
Procedure: as §1, §4, §5
The concentration of SR 46349 in plasma samples was determined using a validated HPLC method with UV detection at 320 nm. […] The samples were dried at room temperature and resuspended in 0.15 mL of mobile phase and 0.05 mL was analyzed. […]
Unknown concentrations of SR 46349 were quantified by reference to a 1/y^2 weighted regression analysis of the peak-area ratio (SR 46349/internal standard) versus concentration of the calibration curve standards. […]
Model-independent pharmacokinetic parameters for plasma concentrations of SR 46349 were calculated for each subject. The maximum observed plasma concentration (Cmax) of SR 46349 and its corresponding time (tmax) were determined by visual inspection of individual concentration-time profiles. Half-life (t 1/2) was calculated from the ratio of ln(2)/λZ, where λZ is the regressed slope of the terminal phase. The area under the plasma concentration of SR 46349-versus-time-curves (AUC(0-t)) was calculated using the trapezoidal rule. AUC was calculated for the sum of AUC(0-t) and Cp(1)/λZ wherein Cp(1) is the last measurable concentration time point. […]

[7] = test system: 5-HT2; conditions: result in words; U.S. Pat. No. 5,166,416; cited from earlier work

- cumulative urinary excretion of radioactivity, mean (±SD) [1]: 70.3 (±4.6) %
- cumulative urinary excretion of radioactivity, range ([1]; range over subjects): 63.1 to 77.1%
- maximal plasma concentrations of radioactivity relative to plasma concentrations of SR 46349 ([2]; at similar tmax values, radioactivity / SR 46349): approximately 3 times
- AUC of plasma radioactivity relative to mean plasma AUC for SR 46349 ([2]; radioactivity / SR 46349): approximately 11 times
- Cmax of plasma radioactivity, mean (±SD) ([2]; single oral 30 mg 14C-SR 46349B, total radioactivity): 0.16 (±0.02) mg eq/L
- AUC of plasma radioactivity, mean (±SD) ([2]; single oral 30 mg, total radioactivity): 13.7 (±2. 1) mg eq.circle-solid.hr/L
- cumulative fecal excretion of radioactivity, mean (±SD) [3]: 21.6 (±3.5) %
- cumulative fecal excretion of radioactivity, range ([3]; range over subjects): 16.4 to 26.5%
Compound: CN(C)CCO/N=[14C](/C=C/c1ccc(O)cc1)c1ccccc1F [^14 C-SR 46349B]

Compound: CN(C)CCON=C(/C=C/c1ccc(O)cc1)c1ccccc1F [SR 46349]
- extent and pathways of metabolism ([4]; result in words, human): extensively metabolized; also recorded: N-oxidation, N-demethylation, sulfation and glucuronidation; also recorded: oxidation of SR 46349 (N-oxidation and N-demethylation) appears to be the major mechanism of metabolic clearance
- percentage of excreted radioactivity [4]: approximately 6%
- plasma concentration compared with any single metabolite [5]: always higher than any individual metabolite
- half-life ([6]; human, po, 30 mg, single oral 30 mg, mean (±SD), read-out: terminal elimination half-life of SR 46349 (converted)): ~1380 min
- Cmax ([6]; human, single oral 30 mg 14C-SR 46349B, healthy male volunteers, capsule, fasted, read-out: Cmax of SR 46349 in plasma, mean (±SD)): 50 ng/mL
- AUC ([6]; human, single oral 30 mg, read-out: mean plasma AUC for SR 46349 (±SD), as restated in the discussion): 1200 ng·h/mL
- terminal elimination half-life of SR 46349 ([6]; single oral 30 mg, mean (±SD)): 22.9 (±7.3) hr

- percentage of excreted radioactivity [4]: approximately 23%
Compound: C[N+](C)([O-])CCON=C(/C=C/c1ccc(O)cc1)c1ccccc1F [H22 & H23]

Compound: CN(C)CCON=C(/C=C/c1ccc(O)cc1)c1ccccc1F [SR 46349B, Trans 1-N,N-dimethylaminoethoxyimino 1-(2-fluorophenyl)-3-(4-hydroxyphenyl)2-propene hemifumarate]
- 5-HT2 antagonist activity [7]: potent 5-HT2 antagonist
- plasma concentration compared with any single metabolite [5]: higher than any single metabolite, except at the 48 hr time point
